Data on 16 molecules can be found in article PMC6891762, “Novel Isoxazolidine and γ-Lactam Analogues of Homonucleosides” (Molecules, 2019).

Converted amounts (≈) assume the structure as drawn.

The test system of data set [1] is hTERT RPE-1 normal retina (non-cancerous) cells. Nature of the data set: Cytostatic activity, normal retina cells. The format is cell-based. To be noted: hTERT-RPE1; concentration causing 50% decrease in cell proliferation. The method, then: (§1) The 50% cytostatic inhibitory concentration (IC50) causing a 50% decrease in cell proliferation was determined for all isolated isoxazolidines 14 and γ-lactams 15 toward nine cancerous cell lines (Capan-1 (pancreatic adenocarcinoma), Hap1 (chronic myeloid leukemia), HCT-116 (colorectal carcinoma), NCI-H460 (lung carcinoma), DND-41 (acute lymphoblastic leukemia), HL-60 (acute myeloid leukemia), K-562 (chronic myeloid leukemia), MM.1S (multiple myeloma) and Z-138 (non-Hodgkin lymphoma)) and normal retina (non-cancerous) cells (hTERT RPE-1). Docetaxel, etoposide and stauroporine were used as the reference compounds.
(§2) All assays were performed in 96-well microtiter plates. To each well was added (5−7.5) × 10^4 tumor cells and a given amount of the test compound. The cells were allowed to proliferate at 37 °C in a humidified, CO2-controlled atmosphere. At the end of the incubation period, the cells were counted in a Coulter counter. The IC50 (50% inhibitory concentration) was defined as the concentration of the compound that inhibited cell proliferation by 50%.

Data set [2] deals with Capan-1 (pancreatic adenocarcinoma) cells. Nature of the data set: Cytostatic activity, Capan-1. The format is cell-based. The method, then: The 50% cytostatic inhibitory concentration (IC50) causing a 50% decrease in cell proliferation was determined for all isolated isoxazolidines 14 and γ-lactams 15 toward nine cancerous cell lines (Capan-1 (pancreatic adenocarcinoma), Hap1 (chronic myeloid leukemia), HCT-116 (colorectal carcinoma), NCI-H460 (lung carcinoma), DND-41 (acute lymphoblastic leukemia), HL-60 (acute myeloid leukemia), K-562 (chronic myeloid leukemia), MM.1S (multiple myeloma) and Z-138 (non-Hodgkin lymphoma)) and normal retina (non-cancerous) cells (hTERT RPE-1).
All assays were performed in 96-well microtiter plates. To each well was added (5−7.5) × 10^4 tumor cells and a given amount of the test compound. The cells were allowed to proliferate at 37 °C in a humidified, CO2-controlled atmosphere. At the end of the incubation period, the cells were counted in a Coulter counter.

Data set [3] has as its system Hap1 (chronic myeloid leukemia) cells. Nature of the data set: Cytostatic activity, Hap1. It counts as cell-based. The settings on record: Homo sapiens, HAP1; concentration causing 50% decrease in cell proliferation. The method, then:
as §1, §2

Data set [4] concerns HCT-116 (colorectal carcinoma) cells. Nature of the data set: Cytostatic activity, HCT-116. The format is cell-based. The settings on record: Homo sapiens, HCT-116; concentration causing 50% decrease in cell proliferation. The method, then: as §1, §2
Data set [5] deals with NCI-H460 (lung carcinoma) cells. Nature of the data set: Cytostatic activity, NCI-H460. It counts as cell-based. The settings on record: Homo sapiens, NCI-H460; concentration causing 50% decrease in cell proliferation. The method, then: as §1, §2
Data set [6] deals with reverse transcriptase activity of (AMV) and human immunodeficiency virus (HIV). To be noted: ref [34],[35],[36],[37],[38]; cited from earlier work.
On the set-up of data set [7]: method as in PMID 12904074, PMID 20394405, PMID 15743182, PMID 17580846, PMID 17967914. The settings on record: ref [34],[35],[36],[37],[38]; read-out: 50% cytotoxic concentration (CC50); cited from earlier work.
A further data set deals with herpes simplex virus. To be noted: ref [19],[20],[21]; cited from earlier work.
The next data set concerns vaccinia virus. To be noted: ref [19],[20],[21]; cited from earlier work.
Data set [8] has as its system influenza type virus AH1N1. Also noted: method as in PMID 23225323. The settings on record: ref [22]; cited from earlier work.
Data set [9] concerns viral uracil-DNA glycosylase (UDG). The arrangement: method as in PMID 11084051. The settings on record: ref [23]; cited from earlier work.
The next data set relates to human enzymes (UDG). Also noted: method as in PMID 11084051. To be noted: ref [23]; cited from earlier work.
Where [10] appears, read: Homo sapiens, CAPAN-1, concentration causing 50% decrease in cell proliferation.

The IC50 is the concentration that inhibits the measured activity by half. For `Cc1cn(C[C@H]2C[C@H](O)C(=O)N2C)c(=O)[nH]c1=O` (relative stereo) [trans-15b, trans-1-[(4-Hydroxy-1-methyl-5-oxopyrrolidin-2-yl)methyl]-5-methylpyrimidine-2,4(1H,3H)-dione], the half-maximal inhibitory concentration (IC50) is over 100 µM in data set [1]; 49.2 µM in data set [2] (setting [10]); 86.5 µM in [3]; 53.3 µM in data set [4]; 55.6 µM in [5].
On to `CN1C(=O)[C@@H](O)C[C@@H]1Cn1cc(Br)c(=O)[nH]c1=O` (relative stereo) [trans-15d, trans-5-Bromo-1-[(4-hydroxy-1-methyl-5-oxopyrrolidin-2-yl)methyl]pyrimidine-2,4(1H,3H)-dione], for which the IC50 in data set [1] is over 100 µM; in [2] (setting [10]) it was 24.8 µM; in data set [3] it was 58.5 µM; in [4] it was over 100 µM; in data set [5] it was 42.1 µM.
Regarding `CN1C(=O)[C@@H](O)C[C@@H]1Cn1cc(Cl)c(=O)[nH]c1=O` (relative stereo) [trans-15e, trans-5-Chloro-1-[(4-hydroxy-1-methyl-5-oxopyrrolidin-2-yl)methyl]pyrimidine-2,4(1H,3H)-dione], the IC50 in [1] is over 100 µM; in data set [2] (setting [10]), 21.5 µM; in data set [2] (concentration causing 50% decrease in cell proliferation), 18.2 µM; in data set [3] it was 54.5 µM; in [4] it was over 100 µM; in [5], 47.7 µM.
For the molecule `CN1C(=O)[C@@H](O)C[C@@H]1Cn1cnc2c(=O)n(C)c(=O)n(C)c21` (relative stereo) [trans-15h, trans-9-[(4-Hydroxy-1-methyl-5-oxopyrrolidin-2-yl)methyl]-1,3-dimethyl-3,9-dihydro-1H-purine-2,6-dione], the IC50 in data set [1] is over 100 µM; in data set [2] (setting [10]), 47.2 µM; in [3], over 100 µM; in data set [4], 45.7 µM; in data set [5] it was 49.8 µM.
Take `CN1C(=O)[C@@H](O)C[C@@H]1Cn1cnc2c(N)ncnc21` (relative stereo) [trans-15i, trans-5-[(6-Amino-9H-purin-9-yl)methyl]-3-hydroxy-1-methylpyrrolidin-2-one]: the IC50 in data set [1] is over 100 µM; in data set [2] (setting [10]), 53.7 µM; in [3], 47.8 µM; in data set [4], 65.7 µM; in data set [5], 54.7 µM.
For `Cc1cn([C@H]2C[C@H](N=[N+]=[N-])[C@@H](CO)O2)c(=O)[nH]c1=O` [AZT, azidothymidine], in data set [6], the “level of inhibition of reverse transcriptase activity” value is recorded as 10 nM. Moreover, the CC50 in data set [7] was 12.1 µM.
With `Nc1ncnc2c1ncn2C[C@H]1C[C@H](O)[C@@H](CO)O1` [Compound 1], in the data set with herpes simplex virus, the “minimum inhibitory concentration (MIC)” value is 5 to 20 µg/mL. In addition, the “activity against vaccinia virus” value with vaccinia virus is “active”.
With `Nc1nc2c(ncn2C[C@H]2C[C@H](O)[C@@H](CO)O2)c(=O)[nH]1` [Compound 2], in the data set with herpes simplex virus, the “minimum inhibitory concentration (MIC)” value is 5 to 20 µg/mL. For the same molecule, in the data set on vaccinia virus, the “activity against vaccinia virus” value is listed as “active”.
In the case of `O=c1[nH]cnc2c1ncn2C[C@H]1C[C@H](O)[C@@H](CO)O1` [Compound 3], in data set [8], the IC50 is 25.2 µg/mL (≈ 94.6 µM).
For the molecule `O=c1ccn(C[C@H]2C[C@H](O)[C@@H](CO)O2)c(=O)[nH]1` [Compound 4], the “inhibition of viral uracil-DNA glycosylase (UDG)” value in [9] was “selective inhibitor”. Besides, in the data set on human enzymes (UDG), the “effect on the human enzymes” value is given as “only small effect”.
Consider `CC(=O)O[C@@]12CO[C@@H]1C[C@H](O)[C@@]1(C)C(=O)[C@H](O)C3=C(C)[C@@H](OC(=O)[C@H](O)[C@@H](NC(=O)OC(C)(C)C)c4ccccc4)C[C@@](O)([C@@H](OC(=O)c4ccccc4)[C@H]21)C3(C)C` [Docetaxel, reference compound], for which the IC50 in data set [1] came to 25 µM; in data set [2] (setting [10]) it was 0.95 µM; in [3] it was 1.19 µM; in data set [4] it was 0.25 µM; in data set [5], 0.89 µM.
On to `COc1cc([C@@H]2c3cc4c(cc3[C@@H](O[C@@H]3O[C@@H]5CO[C@@H](C)O[C@H]5[C@H](O)[C@H]3O)[C@H]3COC(=O)[C@H]23)OCO4)cc(OC)c1O` [Etoposide, reference compound], for which the half-maximal inhibitory concentration (IC50) in data set [1] was found to be 0.23 µM; in data set [2] (setting [10]), 0.15 µM; in [3] it was 0.04 µM; in data set [4], 1.03 µM; in data set [5], 1.35 µM.
Consider `CN1C(=O)C(O)C[C@H]1Cn1cc(Br)c(=O)[nH]c1=O` (stereo partly drawn) [cis-15d:trans-15d (53:47)], for which the IC50 in [1] is over 100 µM; in data set [2] (setting [10]) it was 52.1 µM; in [3], 49.9 µM; in [4] it was 90 µM; in [5] it was 49.4 µM.
The matching figures for `CN1C(=O)[C@@H](O)C[C@H]1CN1CCC(=O)NC1=O` [cis-15g, cis-1-[(4-Hydroxy-1-methyl-5-oxopyrrolidin-2-yl)metyl]dihydropyrimidine-2,4(1H,3H)-dione]: over 100 µM, 41.3 µM, 56.3 µM, over 100 µM and 42.7 µM.
Take `C[C@H](Cn1cnc2c(N)ncnc21)OCP(=O)(O)O` [tenofovir]: the “level of inhibition of reverse transcriptase activity” value in data set [6] is 1 nM.
With `CN1C(=O)[C@H](O)C[C@H]1CN1CCC(=O)NC1=O` [trans-15g, trans-1-[(4-Hydroxy-1-methyl-5-oxopyrrolidin-2-yl)metyl]dihydropyrimidine-2,4(1H,3H)-dione], the IC50 in data set [1] was over 100 µM; in data set [2] (setting [10]), 46.7 µM; in data set [3] it was 49.4 µM; in [4] it was over 100 µM; in [5], 69.3 µM.
